Results as given in patent US20110015248A1, “SUBSTITUTED HETEROCYCLES” (INTERMED DISCOVERY GMBH, priority 2003, published 2011).

target: T1, Human red blood cell S20 proteasome (Homo sapiens, UniProt P28074); assay: Proteasome inhibition assay; format: biochemical; conditions: not given
T1 construct: host or cells: human red blood cells (native tissue preparation)
Procedure: The test compound is diluted at various concentrations in 2.5% DMSO in a polypropylene 96 well plate. […] The diluted working solution (10 μl/well) is transferred into a polypropylene 96 well plate. The assay buffer consists of 50 mM Tris-HCl (pH 8.0), 0.5 mM EDTA, 0.005% TritonX-100, 0.005% SDS, prepared as a stock solution at 10× concentration. The peptide substrate (Suc-Leu-Leu-Val-Tyr-MCA; 3120v; Peptide Institute; Osaka, Japan) is stored at 10 mM in 100% DMSO. […] The compound and the substrate are preincubated for 10 min at room temperature. Then the mixture of the compound and the substrate (10 μl/well) is transferred to a black non-coated 384 well assay plate (Nunc) and autofluorescence emission is measured at 460 nm (λex, 360 nm) by using a ARVO fluorescence plate leader (Perkin Elmer, Tokyo, Japan).
Human red blood cell S20 proteasome are obtained from Affinity research products Ltd (Cat#PW8720; Exeter, UK) and stored at −80° C. The proteasome is diluted 1 in 1000 with 1× concentration of the assay buffer and 10 μl is added to the substrates and the inhibitor mixture in the plate. The proteolytic reaction is performed at room temperature. The fluorescence emission is continuously measured for 90 min. IC50 values of the compounds are determined at initial velocity of the reaction.

Compound	IC50
CCCCCC[C@H]1C(=O)N[C@@]2([C@@H](O)[C@@H]3C=CCCC3)C(=O)O[C@@]12C [Example 1, (1R,4R,5S)-1-[(S)-(1S)-2-cyclohexen-1-yl(hydroxy)methyl]-4-hexyl-5-methyl-6-oxa-2-aza-bicyclo[3.2.0]heptane-3,7-dione]	1 nM
CCCCCC[C@H]1C(=O)N[C@](C(=O)SCCC(=O)OC)([C@@H](O)[C@@H]2C=CCCC2)[C@@]1(C)O [Example 12, 3-[2-(Cyclohex-2-enyl-hydroxy-methyl)-4-hexyl-3-hydroxy-3-methyl-5-oxo-pyrrolidine-2-carbonylsulfanyl]-propionic acid methyl ester]	0.2 nM

same assay, conditions: substrate Suc-Leu-Leu-Val-Tyr-MCA; room temperature; IC50 determined at initial velocity of the reaction; read-out: IC50

IC50	Compound
305 nM	CCCCCC(O)[C@H]1C(=O)N[C@](C(=O)O)(C(O)[C@@H]2C=CCCC2)[C@@]1(C)O (stereo partly drawn) [Example 4, (3S,4R)-2-[(S)-(1S)-2-cyclohexen-1-yl(hydroxy)methyl]-3-hydroxy-4-[1-hydroxy-hexyl]-3-methyl-5-oxo-D-proline]
106 nM	CCCCCC[C@H]1C(=O)N[C@](C(=O)SCc2ccccc2)([C@@H](O)C2CCCCC2)[C@@]1(C)O [Example 17, 2-(Cyclohexyl-hydroxy-methyl)-4-hexyl-3-hydroxy-3-methyl-5-oxo-pyrrolidine-2-carbothioic acid S-benzyl ester]

test system: not given; assay: not given; conditions: not given

Compound	melting point
CCCCCC(O)[C@H]1C(=O)N[C@](C(=O)SCC(=O)OC)([C@@H](O)[C@@H]2C=CCCC2)[C@@]1(C)O (stereo in doubt)	75 °C
CCCCCC(O)[C@H]1C(=O)N[C@](C(=O)SCCNC(C)=O)([C@@H](O)[C@@H]2C=CCCC2)[C@@]1(C)O (stereo in doubt)	80 °C
CCCCCC(O)[C@H]1C(=O)N[C@@]2(C(O)[C@@H]3C=CCCC3)C(=O)O[C@@]12C (stereo partly drawn)	144 °C
CCCCCC[C@H]1C(=O)N[C@](C(=O)SCCNC(C)=O)([C@@H](O)[C@@H]2C=CCCC2)[C@@]1(C)O (stereo in doubt)	82 °C
CCCCCC[C@H]1C(=O)N[C@](C(=O)SCCC(=O)OC)([C@@H](O)[C@@H]2C=CCCC2)[C@@]1(C)O [Example 12, 3-[2-(Cyclohex-2-enyl-hydroxy-methyl)-4-hexyl-3-hydroxy-3-methyl-5-oxo-pyrrolidine-2-carbonylsulfanyl]-propionic acid methyl ester]	64 °C

The remaining lines, values ahead:

melting point	Compound
85 °C	CCCCCC[C@H]1C(=O)N[C@](C(=O)SC2CCCCC2)([C@@H](O)[C@@H]2C=CCCC2)[C@@]1(C)O (stereo in doubt)
138 °C	CCCCCC[C@H]1C(=O)N[C@](C(=O)SCc2ccccc2)([C@@H](O)[C@@H]2C=CCCC2)[C@@]1(C)O (stereo in doubt)
132 °C	CCCCCC[C@H]1C(=O)N[C@](C(=O)SCCC(=O)OC)([C@@H](O)C2CCCCC2)[C@@]1(C)O (stereo in doubt)
181 °C	CCCCCC[C@H]1C(=O)N[C@](C(=O)SCc2ccccc2)([C@@H](O)C2CCCCC2)[C@@]1(C)O [Example 17, 2-(Cyclohexyl-hydroxy-methyl)-4-hexyl-3-hydroxy-3-methyl-5-oxo-pyrrolidine-2-carbothioic acid S-benzyl ester]
123 °C	CCCCCC(O)[C@H]1C(=O)N[C@](C(=O)SCc2ccccc2)([C@@H](O)[C@@H]2C=CCCC2)[C@@]1(C)O (stereo in doubt) [Example 14, 2-(Cyclohex-2-enyl-hydroxy-methyl)-3-hydroxy-4-(1-hydroxy-hexyl)-3-methyl-5-oxo-pyrrolidine-2-carbothioic acid S-benzyl ester]
167 °C	CCCCCC[C@H]1C(=O)N[C@@]2([C@@H](O)C3CCCCC3)C(=O)O[C@@]12C (stereo in doubt)
